Source: a melting point compilation (Tetko et al.; mined from patent text by program, amines drawn as free bases though some values may be those of a salt)

SMILES | melting point [°C]
CCOC(=O)C1(C(=O)OCC)CC(c2ccc(Cl)cc2N)=CN1C(C)=O | 152 to 153
O=C(O)C1Oc2ccccc2C2(CC2)c2cccc(Cl)c2O1 (configuration not stated) | 154 to 158
Cc1cc2c(cc1C#N)OCC(C)(C)C=C2c1ccccn1 | 136
O=C1Nc2cc(F)ccc2N2CCN(Cc3ccncc3)CC12 (configuration not stated) | 269 to 272
O=C(O)c1cn(-c2ccc(F)cc2F)c2c(F)c(N3Cc4ccc(Br)cc4C3)c(F)cc2c1=O | 251 to 257
CC(=O)OCCN1C(=O)N2CCOC2(c2ccccc2)c2cc(Cl)ccc21 (configuration not stated) | 121 to 123
CCCCCCCCCCCCCCCCCCOc1cc(N(CC(=O)O)CC(=O)O)cc(S(C)=O)c1 (configuration not stated) | 147 to 149
CC(C)Oc1ncnc2c(O)ccc(Cl)c12 | 126
O=c1n(CCCC2CCCCC2)nnn1-c1ccc(S(=O)(=O)Cl)cc1 | 114 to 115
O=C(NCC1CCN(CC2(C(=O)O)CCCCC2)CC1)N1C(=O)C2(CCCC2)c2ccccc21 | 160
Cc1cc(Cl)ccc1N1C(=O)CON(C)C1=S | 141 to 143
CCc1cc(C)c2c(-c3cccc(Cl)c3)cc(=S)n(C)c2n1 | 131 to 133
COC(=O)c1sc(C)c(C#N)c1N(C(=O)OC(C)(C)C)C(=O)OC(C)(C)C | 97 to 102
CC(C)C1Cc2cnc3c(c2C1(O)CC#N)CCO3 (configuration not stated) | 169 to 170
O=c1cc(Oc2ccccc2)c(-c2nc[nH]n2)cn1-c1ccccc1 | 275 to 276
CC(C)(C)c1cc(-c2n[nH]c(=O)[nH]2)cc(C(C)(C)C)c1O | 276 to 280
CC(=O)C=Cc1ccc(Br)cc1 | 82 to 84
CCc1c(OC)nc2nc(C(=N)NO)cn2c1C | 249 to 250
CN(C)CCN(Cc1ccccc1)C1=NC(=O)C(=Cc2cccc(-c3cc(F)c(O)c(C45CC6CC(CC(C6)C4)C5)c3)c2)S1 | 242 to 246
OP(O)C(NC(c1ccccc1)c1ccccc1)c1ccc2ccccc2c1 (configuration not stated) | 205 to 207
C=CCN(CC=C)c1nc(NC(=O)CCCC(=O)OC)n2oc(=O)nc2n1 | 164 to 165
COC(=O)c1cccc(C(=O)c2[nH]c3cc(Cl)ccc3c2NC(C)=O)c1 | 190 to 193
CSc1cc2c(cn1)c(=O)n1nc(C)cc1n2C | > 300
Fc1ccc2c(c1)C(=C1SCCCS1)CCO2 | 47 to 49
N#Cc1cnc2c(sc3c([N+](=O)[O-])cccc32)c1Cl | 258 to 260
CC(C)(C)OC(=O)COc1ccc(C(=O)CN2CCN(c3ccncc3)CC2)cc1 | 103 to 104

SMILES | melting point [°C]
O=C(CCC1c2ccccc2-c2ccccc21)Nc1ccc(C(=O)O)c(O)c1 | 225 to 228
CC(=O)Oc1ccc2ccc(=O)oc2c1CC(Br)CBr (configuration not stated) | 123 to 124
O=C(C1CCN(S(=O)(=O)c2ccc(Cl)cc2)CC1)N1CCN(c2ccncn2)CC1 | 125 to 128
NC1CCCCC1C(O)c1ccccc1 (configuration not stated) | 77 to 85
Cc1cc2c(-c3ccccc3N)nc(N3CCNCC3)nc2s1 | 232 to 236
CCCCOc1ccc(COC(=O)C(=O)OCc2ccc(OCCCC)cc2)cc1 | 114
CC(=O)OC1CSC(Oc2cncc(-c3cnccc3C)c2)C(OC(C)=O)C1OC(C)=O (configuration not stated) | 165
Oc1c(C(O)C(F)(F)F)cnc2c(-c3cc(-c4ccccc4)cs3)cnn12 (configuration not stated) | 265 to 290
CCC1c2cccn2-c2ccc(Cl)cc2N1C(=O)c1ccc(O)cc1O (configuration not stated) | 198 to 201
NC(=O)N(O)CCNC(=O)c1cccc(C(=O)c2ccccc2)c1 | 168 to 170
CCOC=Nc1c(SC(F)(F)F)c(C#N)nn1-c1c(Cl)cc(C(F)(F)F)cc1Cl | 68
Cc1ccc(COc2ncc(F)c(N)n2)cc1 | 111 to 112
N#Cc1nn(-c2ccc(S(N)(=O)=O)cc2)c2c1CSc1ccccc1-2 | 211 to 213
CS(=O)(=O)Nc1ccc(-c2cc(-c3c(-c4cccc(Cl)c4)nc4ccccn34)ccn2)cc1 | 60
C=Cc1ccc2nnn(OS(=O)(=O)c3ccc(Cl)cc3)c2c1 | 125
N=C(Nc1ccccc1)Nc1ncccc1OCc1ccc(Cl)cc1 | 173 to 174
COc1ccc(C(=O)CC(=O)c2snc(Cl)c2Cl)cc1 | 138 to 139
CCSC/C=C\c1cc(F)c2ncc(C(=O)NCc3ccc(Cl)cc3)c(O)c2c1 | 203 to 205
O=C1C2CCCC2=Nc2ccccc2N1Cc1cccc2ccccc12 (configuration not stated) | 145 to 147
N=C(NO)c1ccc(S(N)(=O)=O)s1 | 189
Cc1ccc(-c2cc3cc(C4=NNC(=O)CC4)ccc3[nH]2)cc1 | 266 to 268
N=C(N)Nc1nc(C(=O)NCCCC(CC(=O)O)c2ccccc2)cs1 (racemic) | 230
O=S1(=O)c2ccccc2N(c2cc(F)cc(F)c2)c2ccccc21 | 255 to 258
Cc1c2c(c(C)c3c1NC(C)C3)OC(C)(C)C2 (configuration not stated) | 87 to 88
CCCCCCCCCCCCNc1nccc(NCCCO)n1 | 58 to 59
COC(=O)C(C)(C)Cc1[nH]c2cc(OC)ccc2c1SC(C)(C)C | 133

SMILES | melting point [°C]
O=C(c1ccccc1)c1ccccc1I | 29 to 31
COc1cccc2c1OC(CO)C2=O (configuration not stated) | 103 to 104
S=c1[nH]ccn1C1Cc2ccccc2C1 | 210 to 211
Cn1cc(CS(C)=O)c(=O)c2ccc(Cl)cc21 (configuration not stated) | 180 to 181
CC(=O)OCc1cc(COC(C)=O)n(C(c2ccccc2)(c2ccccc2)c2ccccc2)n1 | 119 to 121
O=C(N[C@H](Cc1ccc(C(F)(F)F)c(F)c1)[C@@H](O)c1ccc(F)cc1)c1ccc(F)c2ccccc12 (racemic) | 212 to 213
O=Cc1cc(O)c(O)c(C(F)(F)F)c1 | 188 to 192
CNn1cc(C(=O)O)c(=O)c2cc(F)c(F)c(F)c21 | 237 to 238
CCOP(=O)(/C=C/C=C/c1cn(-c2ccccc2)nc1OCc1ccc(OCc2nc(-c3ccco3)oc2C)c(OC)c1)OCC | 143 to 144
Fc1cc(Cl)ccc1-n1nc2c(c1Br)CCCCC2 | 59 to 60
COC(=O)c1cccc(N)c1CS(=O)(=O)NC(C)(C)C | 123 to 125
CCCCc1nn(C(C)C(=O)NC)c(=O)n1Cc1ccc(-c2ccccc2-c2nnn[nH]2)cc1 (configuration not stated) | 153 to 155
CC(C(N)=O)C(O)(Cn1cncn1)c1ccc(Cl)cc1 (configuration not stated) | 186 to 189
O=[N+]([O-])c1cccc(OCc2nc3ccccc3s2)c1 | 156 to 157
CC(C)(C)OC(=O)N1CC2(C[C@H]1C(=O)OCOC(=O)C(C)(C)C)SCCS2 | 79.5 to 81
O=C(O)c1cn(-c2cccnc2)nc1Br | 270 to 278
C#Cc1cccc(OCc2ccc(OC)cc2)c1 | 92 to 95
CN(C)Cc1ccc(CSCCNC2=NS(=O)(=O)C(C(=O)N(C)C)=C2N)o1 | 101 to 104
O=C1Nc2cc(CN3CCN(c4ccc(Cl)cc4)CC3)cnc2N2CCC[C@@H]12 | 265 to 268
COc1cc(-c2ccc(C#N)cc2)cc(-c2nc3cc(C#N)ccc3[nH]2)c1O | 334 to 335
Cn1c(-c2ccccc2)c(CCC(=O)O)c2ccccc2c1=O | 138 to 140
CCCOc1ccc(F)c2c(=O)c(-c3ccc(OC)cc3)cn(CC(=O)NC3CCNCC3)c12 | 226 to 228
COc1cccc(CC(O)C2CCN(CS(N)(=O)=O)CC2)c1OC (configuration not stated) | 112 to 114
CC(C)NC(=O)C1c2cc(NC(=O)c3cc(C(F)(F)F)nn3-c3ncccc3Cl)c(Cl)cc2CC1O (configuration not stated) | 204 to 205
COC(=O)CCC#Cc1ccc(C(F)(F)F)cc1N | 42
CS(=O)(=O)c1nccc(Oc2ccccc2)n1 | 113 to 116

SMILES | melting point [°C]
Cc1cc(C)c(NC(=O)C2c3ccccc3COc3ccc(C)cc32)c(C)c1 (configuration not stated) | 148 to 149
CS(=O)(=O)c1ccc(-c2sc(-c3ccccc3Cl)nc2-c2ccccc2F)cc1 | 163 to 166
O=C(Nc1cccc2c(=O)cc[nH]c12)c1c(Cl)cccc1Cl | 342
N#Cc1ccc2[nH]c(=O)c3ccccc3c(=O)c2c1 | > 300
Cc1c(C)c(N2CCN(Cc3ccccc3)CC2)c(C)c2c1OC(C)(C)C2c1ccc(F)nc1 (configuration not stated) | 76 to 79
C[C@@H](Nc1ccc([N+](=O)[O-])cc1)C(=O)O | 238 to 244
CCc1nnc(-c2ccc(OC)cc2)n1-c1cccc(C(F)(F)F)c1 | 140
Cc1oc(-c2ccccc2)nc1COc1ccc2c(-c3ccccc3)c(COc3nn(-c4ccccc4)cc3C(=O)O)oc2c1 | 200 to 201
Cc1cc(C#N)c(C)c(C(=O)Nc2ccc(Cl)cn2)n1 | 264
CCOC(=O)C1=C(N)N=C(OCC)C(C(=O)OCC)C1c1cccc(Cl)c1 (configuration not stated) | 121
CC(C)(C)CN1c2ccccc2C(C)(C)C12C=Nc1c(ccc3ccccc13)O2 (configuration not stated) | 167 to 170
CCOC(=O)C(C)(C)c1nsc2ccc([N+](=O)[O-])cc12 | 75 to 77
COc1ccc2ccc3ccc(C=O)c4ccc1c2c34 | 135 to 136
CCc1ncc(CCCO)n1C | 69 to 71
C#Cc1c(C(C)C)nc(-c2ccccc2)n1-c1ccc(F)cc1 | 148 to 150
COC(=O)Nc1ccc(Br)c(F)c1 | 121 to 122
COc1ccc(-c2cc(-c3ccccc3)[nH]c2C(=O)NCc2ccc(C(=O)NO)cc2)cc1OC | 134 to 136
CC(=O)NC(C)(C)c1ccc(C(C)N2CCN(c3ccc(F)cc3)CC2)cc1 (configuration not stated) | 156 to 157
CN1Cc2ccccc2C(=O)c2c1nc1ccc(Br)cc1c2Cl | 153 to 155
Nc1ncc(Cc2ccc3ccccc3c2)c(N)n1 | 231 to 233
COC(=O)c1cccc(-c2cccc(N)c2)c1 | 63 to 65
O=C(NCc1ccncc1)c1cccnc1Oc1cccnc1 | 142 to 144
O=C(O)C1=Cc2cc(Cl)cc(Cl)c2OC1C(F)(F)F (configuration not stated) | 166 to 168
C[C@@H](O)c1nccc(N2CCN(c3nc4ccncc4o3)CC2)n1 | 181 to 183
